Results taken from patent publication US9512176B2, “Age inhibitors” (Centre National de la Recherche Scientifique, priority 2005, dated 2016).
Entries after “also recorded” stand apart in the source; their conditions may differ. Non-standard residues stand in square brackets, D forms with d. Residues, ends and D or L forms follow the SMILES beside them. ξ: configuration not given here. Ile(3ξ) = CCC(C)[C@H](N)C(=O)O; dDap = NC[C@@H](N)C(=O)O; Dap = NC[C@H](N)C(=O)O

What was measured:
EA.hy 926 cell line = assay: Growth of EA.hy 926 endothelial cells with MG scavengers and/or methylglyoxal (MTT); assay type: cell-based, human; settings: for viability at 1000 µM: Homo sapiens, EA.hy 926, read-out: Cells + MG scavengers + Methylglyoxal (B); for Difference (B) − (A): Table 2, cells with scavenger + MG minus cells with scavenger alone; for Cells + MG scavengers (A): scavenger 1 mM, no methylglyoxal, number of cells relative to untreated control cells; for effect against suppression of cell growth by MG: scavenger + methylglyoxal; for difference between number of cells growing with compound and with MG and compound: values in brackets; for cell toxicity: text b496, compound alone
Experimental: The cells used for the test are from the EA.hy 926 cell line, which are endothelial cells obtained by the hybridization of human umbilical vein endothelial cells (HUVECs) with lung cancer cells (A549). The EA.hy 926 endothelial cells are incubated in Dulbecco's modified Eagle's Medium (DMEM) enriched with 10% fetal calf serum. The cells are incubated in 12-well plates. Each well initially contains 100,000 cells. Cell growth is achieved by incubating the cells in 2 ml of culture medium after adding or not adding the various potential inhibitors (1 mM) and/or methylglyoxal (600 μM) for 48 hours at 37° C. in a moist atmosphere with 5% CO2.
The number of cells is evaluated in the following way:
The cells are stained using the (4,5-dimethylthiazol-2-yl)-2,5-diphenyltetrazolium bromide (MTT) assay. MTT penetrates in the cell where it is converted into formazan. The quantity of formazan formed is proportional to the number of living cells.
The results are expressed as a relative percentage of the number of cells after treatment compared to the number of control cells without treatment [100*OD (treated cells)/OD (control cells)]. Detection is carried out by UV/visible spectrophotometry at 570 nm.
Principle: MTT (yellow) penetrates the cell and is converted into an insoluble blue compound, formazan, by cleavage of its tetrazolium rings by the mitochondrial dehydrogenase enzymes of living cells. Formazan is solubilized by isopropanol. The number of cells is proportional to the quantity of formazan formed and its absorbance.

ribonuclease A [1] = assay: SDS PAGE electrophoresis of ribonuclease A incubated with methylglyoxal and inhibitor; assay type: biochemical; settings: ribonuclease A 10 mg/ml, methylglyoxal 10 mM, inhibitor equimolar, 37° C., 48 hours
Experimental: (§1) Ribonuclease A and lysozyme (10 mg/ml) are incubated in the presence of methylglyoxal (10 mM) or in the presence of methylglyoxal and one of the inhibitors according to the present invention in an equimolar quantity at 37° C. After 48 hours of incubation, the proteins are analyzed by polyacrylamide gel electrophoresis (8%-16% SDS PAGE gel).
The AGE inhibitors according to the present invention, namely L-DAPA-L-Leu (example 1) and L-DAPA-L-Ile (example 18), or AG (10 mM) are incubated with MG and ribonuclease A for […] at 37° C.

lysozyme = assay: SDS PAGE electrophoresis of lysozyme incubated with methylglyoxal and inhibitor; assay type: biochemical; settings: lysozyme 10 mg/ml, methylglyoxal 10 mM, inhibitor equimolar, 37° C., 48 hours
Experimental: as §1

ribonuclease A [2] = assay: Enzymatic activity of ribonuclease A after treatment with methylglyoxal and inhibitors (methylene blue RNA staining); assay type: biochemical; settings: ribonuclease A treated with methylglyoxal (MG) + inhibitor in equimolar quantity, 37° C.; control RNase 100, RNase + methylglyoxal 10.11%
Experimental: as §1
The enzymatic activity of ribonuclease A after treatment with methylglyoxal and the various inhibitors according to the present invention is measured using the methylene blue RNA staining technique of Greiner-Stöffele et al. (Anal. Biochem. (1996) 240, 24).

glyoxalase I = assay: Glyoxalase I treated with methylglyoxal: non-denaturing electrophoresis and enzymatic activity; assay type: biochemical
Experimental: MG reacts with a protein's lysine and arginine residues, thus altering the charges on the modified polypeptide. […] The exposure of glyoxalase I to MG (10 mM) for 24 hours increases the mobility of the protein toward the positive electrode, a change that is consistent with the loss of positive charges from the ε-amino and guanidino groups and the gain of negative charges.
The incubation of glyoxalase I, a key protein in the α-oxoaldehyde detoxification system, in the presence of methylglyoxal, modifies the protein. This modification causes a change in charge and a 50% decrease in enzymatic activity compared to the control.

RNase A = RNase A modifications induced by methylglyoxal (HPLC); assay type: biochemical; settings: RNase A 0.08 mM, methylglyoxal 32 mM, compound 38 mM, 21 hours at 37° C.
Experimental: FIGS. 11 to 13 present the results obtained by HPLC for three compounds according to the present invention, L-DAPA-L-Ile (example 18), L-DAPA-L-Val (example 23) and L-DAPA-L-Leu (example 1), on RNase A modifications induced by methylglyoxal. HPLC conditions are as follows: C-18, Symmetry 300 (4.6×250 mm) column, injection volume 100 μl of reaction mixture diluted to 1/10; flow 1 ml/min; temperature 40° C.; solvent A: H2O+0.1% TFA; solvent B: 60/40 CH3CN/H2O+0.1% TFA; linear gradient of 20% B to 80% B in 20 minutes; detection: UV at 215 nm: PDA (chromatograms extracted at 215 nm).

[3] = scavenger 1 mM + methylglyoxal 600 μM, 48 hours, relative to untreated control cells, MG alone 24, mean of 3 experiments
[4] = 48 hours, mean of 3 experiments

NCCC(=O)N[C@@H](Cc1cnc[nH]1)C(=O)O [Carnosine, β-alanyl-L-histidine, reference compound]
viability at 1000 µM (EA.hy 926 cell line; [3]): 50%
Difference (B) − (A) (EA.hy 926 cell line): −49
Cells + MG scavengers (A) (EA.hy 926 cell line; [4]): 99%
effect against suppression of cell growth by MG (EA.hy 926 cell line): less effective

NCCCC[C@H](N)C(=O)O [L-Lys, reference compound]
Difference (B) − (A) (EA.hy 926 cell line): −38
Cells + MG scavengers + Methylglyoxal (B) (EA.hy 926 cell line; [3]): 43%
Cells + MG scavengers (A) (EA.hy 926 cell line; [4]): 81%

CN(C)C(=N)N=C(N)N [Metformin, reference compound]
viability at 1000 µM (EA.hy 926 cell line; [3]): 45%
Difference (B) − (A) (EA.hy 926 cell line): −46
toxicity with respect to EA cells (EA.hy 926 cell line; compound alone, 1 mM): extremely low toxicity
Cells + MG scavengers (A) (EA.hy 926 cell line; [4]): 91%
effect against suppression of cell growth by MG (EA.hy 926 cell line): less effective; also recorded: weak scavenger

CC(C)C[C@H](NC(=O)[C@@H](N)CN)C(=O)O [example 3, L-DAPA-L-Leu.2TFA] (H-[Dap]-Leu-OH)
difference between number of cells growing with compound and with MG and compound (EA.hy 926 cell line): −18

C[C@@H](NC(=O)[C@H](N)CN)C(=O)O [example 8, D-DAPA-D-Ala.2HCl] (H-[dDap]-[dA]-OH)
protection from structural modifications (dimer form) caused by methylglyoxal (ribonuclease A [1]): provides protection
protection from structural modifications (dimer form) caused by methylglyoxal (lysozyme): provides protection
Enzymatic activity (%) (ribonuclease A [2]): 87.37%
viability at 1000 µM (EA.hy 926 cell line; [3]): 71%
Difference (B) − (A) (EA.hy 926 cell line): −6
Cells + MG scavengers (A) (EA.hy 926 cell line; [4]): 77%
cell toxicity (EA.hy 926 cell line): 39%
difference between number of cells growing with compound and with MG and compound (EA.hy 926 cell line): +1

CC(C)C[C@H](NC(=O)[C@@H](N)[C@H](C)N)C(=O)O [example 12, (2S,3S)-DABA-L-Leu.2HCl]
protection from structural modifications (dimer form) caused by methylglyoxal (ribonuclease A [1]): provides protection
protection from structural modifications (dimer form) caused by methylglyoxal (lysozyme): provides protection
Enzymatic activity (%) (ribonuclease A [2]): 80.97%
viability at 1000 µM (EA.hy 926 cell line; [3]): 73%
Difference (B) − (A) (EA.hy 926 cell line): −4
Cells + MG scavengers (A) (EA.hy 926 cell line; [4]): 77%
difference between number of cells growing with compound and with MG and compound (EA.hy 926 cell line): −4

CC(C)C[C@H](NC(=S)[C@@H](N)CN)C(=O)O [example 16, L-DAPA-L-(S)-Leu.2HCl]
Enzymatic activity (%) (ribonuclease A [2]): 75.69%
viability at 1000 µM (EA.hy 926 cell line; [3]): 74%
Difference (B) − (A) (EA.hy 926 cell line): +3
Cells + MG scavengers (A) (EA.hy 926 cell line; [4]): 71%

NC[C@H](N)C(=O)NCC(=O)O [example 17, L-DAPA-Gly.2HCl] (H-[Dap]-Gly-OH)
protection from structural modifications (dimer form) caused by methylglyoxal (ribonuclease A [1]): provides protection
protection from structural modifications (dimer form) caused by methylglyoxal (lysozyme): provides protection
Enzymatic activity (%) (ribonuclease A [2]): 85.61%
viability at 1000 µM (EA.hy 926 cell line; [3]): 50%
Difference (B) − (A) (EA.hy 926 cell line): −4
Cells + MG scavengers (A) (EA.hy 926 cell line; [4]): 54%
cell toxicity (EA.hy 926 cell line): 43%
difference between number of cells growing with compound and with MG and compound (EA.hy 926 cell line): +3

CCC(C)[C@H](NC(=O)[C@@H](N)CN)C(=O)O (stereo partly drawn) [example 18, L-DAPA-L-Ile.2HCl] (H-[Dap]-[Ile(3ξ)]-OH)
protection from structural modifications (dimer form) caused by methylglyoxal (ribonuclease A [1]): provides protection
protection from structural modifications (dimer form) caused by methylglyoxal (lysozyme): provides protection
gain of negative charge of glyoxalase I exposed to MG (glyoxalase I; MG 10 mM, 24 hours, non-denaturing electrophoresis): inhibits the gain of negative charge
inhibition of glyoxalase I enzymatic activity and structural modification by methylglyoxal (glyoxalase I; MG alone: 50% decrease in enzymatic activity): prevents the inhibition exerted by methylglyoxal and protects against structural modifications
Enzymatic activity (%) (ribonuclease A [2]): 90.77%
cell survival when incubated with MG (EA.hy 926 cell line): 79%
viability at 1000 µM (EA.hy 926 cell line; [3]): 79%
Difference (B) − (A) (EA.hy 926 cell line): −7
Cells + MG scavengers (A) (EA.hy 926 cell line; [4]): 86%
effect against suppression of cell growth by MG (EA.hy 926 cell line): same trend
difference between number of cells growing with compound and with MG and compound (EA.hy 926 cell line): −9
RNase A modifications induced by methylglyoxal (RNase A): prevent the modifications to RNase A

NC[C@H](N)C(=O)N[C@@H](Cc1ccccc1)C(=O)O [example 21, L-DAPA-L-Phe.2HCl] (H-[Dap]-Phe-OH)
Enzymatic activity (%) (ribonuclease A [2]): 70.20%
viability at 1000 µM (EA.hy 926 cell line; [3]): 71%
Difference (B) − (A) (EA.hy 926 cell line): −6
Cells + MG scavengers (A) (EA.hy 926 cell line; [4]): 77%
difference between number of cells growing with compound and with MG and compound (EA.hy 926 cell line): −6

N[C@H](C(=O)NCC(=O)O)[C@@H](N)C(=O)NCC(=O)O [example 28, (2S,3R)-DASA-1-Gly-4-Gly.2HCl]
viability at 1000 µM (EA.hy 926 cell line; [3]): 54%
Difference (B) − (A) (EA.hy 926 cell line): −7
Cells + MG scavengers (A) (EA.hy 926 cell line; [4]): 61%

CC(C)[C@H](NC(=O)[C@@H](N)[C@H](N)C(=O)N[C@H](C(=O)O)C(C)C)C(=O)O [example 29, (2S,3S)-DASA-1-L-Val-4-L-Val.2HCl]
protection from structural modifications (dimer form) caused by methylglyoxal (ribonuclease A [1]): provides protection
protection from structural modifications (dimer form) caused by methylglyoxal (lysozyme): provides protection
Enzymatic activity (%) (ribonuclease A [2]): 75.09%
viability at 1000 µM (EA.hy 926 cell line; [3]): 70%
Difference (B) − (A) (EA.hy 926 cell line): −15
Cells + MG scavengers (A) (EA.hy 926 cell line; [4]): 85%
difference between number of cells growing with compound and with MG and compound (EA.hy 926 cell line): −15
